# Values of other authors in patent US20030236237A1, “Method of treating symptoms of hormonal variation, including hot flashes, using tachykinin receptor antagonist” (priority 2000, published 2003).
# Like-named read-outs stand apart in the source and are kept apart here.
# Key:
# hot flashes [1] = conditions: transdermal; tamoxifen-treated women
# hot flashes [2] = conditions: low dose oral; men and women; short term study
# [3] = test system: neurokinin B gene expression in the hypothalamic arcuate nucleus (ArN); conditions: ovariectomized primate treated with estrogen
# [4] = test system: neurokinin B gene expression in the hypothalamic arcuate nucleus (ArN); conditions: ovariectomized rat treated with estrogen
# hot flash = conditions: humans
compound,measurement,setting,value
Clc1cccc(Cl)c1N=C1NCCN1 [clonidine],frequency and severity of hot flashes,hot flashes [1],only a moderate effect
CC(=O)O[C@]1(C(C)=O)CC[C@H]2[C@@H]3C=C(C)C4=CC(=O)CC[C@]4(C)[C@H]3CC[C@@]21C [megestrol acetate],frequency of hot flashes,hot flashes [2],shown to reduce the frequency of hot flashes
estrogen,ArN changes (increased NKB gene expression),[3],completely prevents
same,ArN changes (increased NKB gene expression),[4],completely prevents
substance P [substance-P],clinical hot flash after systemic injection,hot flash,results in a clinical hot flash
